Measurements as given in patent US10611740B2, “Aryl dihydro-2H-benzo[b][1,4]oxazine sulfonamide and related compounds for use as agonists of RORγ and the treatment of disease” (Lycera Corporation, priority 2015, dated 2020).
pEC50: −log10 of the molar value.

Columns and labels:
Gal4-RORγ-LBD = biological target: T1, Gal4-RORγ-LBD (Homo sapiens, UniProt P51449); test: Gal4-RORγ Luciferase Reporter Assay in HEK-293T Cells; format: cell-based; conditions: HEK-293 cells
T1 construct: expressed in transfected cells; host or cells: HEK-293 cells (pcDNA3.1neo plasmid)
T1 sequence (P51449 269-508 limits assumed): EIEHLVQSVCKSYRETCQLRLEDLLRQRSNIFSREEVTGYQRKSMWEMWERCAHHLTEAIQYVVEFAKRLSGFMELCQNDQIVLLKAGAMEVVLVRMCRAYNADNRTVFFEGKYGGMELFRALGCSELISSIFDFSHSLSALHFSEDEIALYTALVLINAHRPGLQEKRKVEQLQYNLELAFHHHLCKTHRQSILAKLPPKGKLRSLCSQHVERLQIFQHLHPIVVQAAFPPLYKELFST
Outline: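 In transfected HEK-293 cells (Gal4-RORγ-LBD, Gal4-luciferase), test agents with 2 μM ursolic acid were incubated overnight at 37 °C before luminescent detection. Values are relative to the ursolic-acid-free, compound-free signal (100).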

RORγ-LBD = biological target: T2, RORγ-LBD (Homo sapiens, UniProt P51449); test: RORγ-Ligand Binding Domain (LBD) TR-FRET Assay; format: biochemical;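 for TR-FRET Assay Max Response: 665/615 nm ratio relative to signal without ursolic acid or compound set at 100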
T2 construct: made in house; host or cells: SF9 cells (baculovirus)
T2 sequence (P51449 269-508 limits assumed): T1 sequence (P51449 269-508 limits assumed)
Outline: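 Lysate from SF9 cells expressing His-RORγ-LBD is diluted to about 3 nM final in 50 mM Tris pH 7.0 assay buffer. A biotin-tagged SRC1 LXXLL peptide goes in at 200 nM final, plus ursolic acid at 2 μM final. Test compounds carry 1% DMSO final; signal read by TR-FRET.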

[1] = luciferase reporter, with 2 μM ursolic acid

SMILES	pEC50 (Gal4-RORγ-LBD; [1])	pEC50 (RORγ-LBD)	pEC50 (Gal4-RORγ-LBD; 2 μM ursolic acid)	Gal4-RORγ Assay Max Response (Gal4-RORγ-LBD; [1])	TR-FRET Assay Max Response (RORγ-LBD)	Gal4-RORγ Assay Max Response (Gal4-RORγ-LBD; 2 μM ursolic acid)
CCn1cc(S(=O)(=O)N2C[C@H](CCC(=O)O)Oc3ccc(-c4cccc(Cl)c4)cc32)c(Cl)n1 [Compound 6C, (S)-3-(4-((3-chloro-1-ethyl-1H-pyrazol-4-yl)sulfonyl)-6-(3-chlorophenyl)-3,4-dihydro-2H-benzo[b][1,4]oxazin-2-yl)propanoic acid]	5.30 to 6.30	> 6.30		** (The symbol “**” indicates a value in the range of greater than 90 to 150)	**** (The symbol “****” indicates a value greater than 200)	
CCOc1ncc(C(F)(F)F)cc1S(=O)(=O)N1C[C@H](CCC(=O)O)Oc2ccc(-c3cccc(Cl)c3)cc21 [Compound 6D, (S)-3-(6-(3-chlorophenyl)-4-((2-ethoxy-5-(trifluoromethyl)-pyridin-3-yl)sulfonyl)-3,4-dihydro-2H-benzo[b][1,4]-oxazin-2-yl)propanoic acid]	5.30 to 6.30	> 6.30		** (The symbol “**” indicates a value in the range of greater than 90 to 150)	**** (The symbol “****” indicates a value greater than 200)	
O=C(O)CC[C@H]1CN(S(=O)(=O)c2cccc(C3CC3)c2)c2cc(-c3cccc(Cl)c3)ccc2O1 [Compound 6H, (S)-3-(6-(3-chlorophenyl)-4-((3-cyclopropylphenyl)sulfonyl)-3,4-dihydro-2H-benzo[b][1,4]oxazin-2-yl)propanoic acid]	> 6.30	> 6.30		** (The symbol “**” indicates a value in the range of greater than 90 to 150)	**** (The symbol “****” indicates a value greater than 200)	
O=C(O)CC[C@H]1CN(S(=O)(=O)c2cc(F)cc(C(F)(F)F)c2)c2cc(-c3cc(F)ccc3F)ccc2O1 [Compound 6J, (S)-3-(6-(2,5-difluorophenyl)-4-((3-fluoro-5-(trifluoromethyl)phenyl)-sulfonyl)-3,4-dihydro-2H-benzo[b][1,4]oxazin-2-yl)propanoic acid]	> 6.30	> 6.30		** (The symbol “**” indicates a value in the range of greater than 90 to 150)	*** (The symbol “***” indicates a value in the range of greater than 150 to 200)	
O=C(O)CC[C@H]1CN(S(=O)(=O)c2cccc(C(F)(F)F)c2)c2cc(-c3cccc(Cl)c3)cc(F)c2O1 [Compound 8, (S)-3-(6-(3-chlorophenyl)-8-fluoro-4-((3-(trifluoromethyl)phenyl)sulfonyl)-3,4-dihydro-2H-benzo[b][1,4]oxazin-2-yl)propanoic acid]	> 6.30	> 6.30		** (The symbol “**” indicates a value in the range of greater than 90 to 150)	**** (The symbol “****” indicates a value greater than 200)	
O=c1[nH]nc(CC[C@H]2CN(S(=O)(=O)c3cccc(C(F)(F)F)c3)c3cc(-c4cc(F)ccc4F)ccc3O2)o1 [Compound 11, (S)-5-(2-(6-(2,5-difluorophenyl)-4-((3-(trifluoromethyl)phenyl)sulfonyl)-3,4-dihydro-2H-benzo[b][1,4]oxazin-2-yl)ethyl)-1,3,4-oxadiazol-2(3H)-one]	> 6.30	> 6.30		** (The symbol “**” indicates a value in the range of greater than 90 to 150)	**** (The symbol “****” indicates a value greater than 200)	
CC(C)(C)OC(=O)NCC[C@H]1CN(S(=O)(=O)c2cccc(C(F)(F)F)c2)c2cc(-c3cc(F)ccc3F)ccc2O1 [Compound 12, tert-butyl (S)-(2-(6-(2,5-difluorophenyl)-4-((3-(trifluoromethyl)phenyl)sulfonyl)-3,4-dihydro-2H-benzo[b][1,4]oxazin-2-yl)ethyl)carbamate]	> 6.30	> 6.30		* (The symbol “*” indicates a value in the range of 25 to 90)	**** (The symbol “****” indicates a value greater than 200)	
CC(=O)NCC[C@H]1CN(S(=O)(=O)c2cccc(C(F)(F)F)c2)c2cc(-c3cc(F)ccc3F)ccc2O1 [Compound 13, (S)—N-(2-(6-(2,5-difluorophenyl)-4-((3-(trifluoromethyl)phenyl)sulfonyl)-3,4-dihydro-2H-benzo[b][1,4]oxazin-2-yl)ethyl)acetamide]		> 6.30	> 6.30		**** (The symbol “****” indicates a value greater than 200)	** (The symbol “**” indicates a value in the range of greater than 90 to 150)
O=C(NC[C@H]1CN(S(=O)(=O)c2cccc(C(F)(F)F)c2)c2cc(-c3cc(F)ccc3F)ccc2O1)N1CCOCC1 [Compound 16, (S)—N-((6-(2,5-difluorophenyl)-4-((3-(trifluoromethyl)phenyl)sulfonyl)-3,4-dihydro-2H-benzo[b][1,4]oxazin-2-yl)methyl)morpholine-4-carboxamide]		> 6.30	> 6.30		**** (The symbol “****” indicates a value greater than 200)	** (The symbol “**” indicates a value in the range of greater than 90 to 150)

Further lines, with some results ahead:

pEC50 (Gal4-RORγ-LBD; [1])	pEC50 (RORγ-LBD)	pEC50 (Gal4-RORγ-LBD; 2 μM ursolic acid)	SMILES	Gal4-RORγ Assay Max Response (Gal4-RORγ-LBD; [1])	TR-FRET Assay Max Response (RORγ-LBD)	Gal4-RORγ Assay Max Response (Gal4-RORγ-LBD; 2 μM ursolic acid)
5.30 to 6.30	> 6.30		O=C(O)CC[C@H]1CN(S(=O)(=O)c2cc(C(F)(F)F)cnc2OCCO)c2cc(-c3cccc(Cl)c3)ccc2O1 [Compound 6G]	** (The symbol “**” indicates a value in the range of greater than 90 to 150)	**** (The symbol “****” indicates a value greater than 200)	
5.30 to 6.30	> 6.30		Cc1c(C(F)(F)F)cccc1S(=O)(=O)N1C[C@H](CCC(=O)O)Oc2ccc(-c3cc(F)ccc3F)cc21 [Compound 6I, (S)-3-(6-(2,5-difluorophenyl)-4-((2-methyl-3-(trifluoromethyl)phenyl)-sulfonyl)-3,4-dihydro-2H-benzo[b][1,4]oxazin-2-yl)propanoic acid]	** (The symbol “**” indicates a value in the range of greater than 90 to 150)	*** (The symbol “***” indicates a value in the range of greater than 150 to 200)	
> 6.30	> 6.30		COc1cc(S(=O)(=O)N2C[C@H](CCC(=O)O)Oc3ccc(-c4cc(F)cc(F)c4Cl)cc32)ccc1F [Compound 6K, (S)-3-(6-(2-chloro-3,5-difluorophenyl)-4-((4-fluoro-3-methoxyphenyl)sulfonyl)-3,4-dihydro-2H-benzo[b][1,4]oxazin-2-yl)propanoic acid]	** (The symbol “**” indicates a value in the range of greater than 90 to 150)	*** (The symbol “***” indicates a value in the range of greater than 150 to 200)	
> 6.30	> 6.30		O=C(O)CC[C@H]1CN(S(=O)(=O)c2cccc(OC(F)F)c2)c2cc(-c3cc(F)cc(F)c3Cl)ccc2O1 [Compound 6L, (S)-3-(6-(2-chloro-3,5-difluoro-phenyl)-4-((3-(difluoromethoxy)-phenyl)sulfonyl)-3,4-dihydro-2H-benzo[b][1,4]oxazin-2-yl)propanoic acid]	** (The symbol “**” indicates a value in the range of greater than 90 to 150)	*** (The symbol “***” indicates a value in the range of greater than 150 to 200)	
> 6.30	> 6.30		O=C(O)CC[C@H]1CN(S(=O)(=O)c2cccc(C(F)(F)F)c2)c2cc(-c3cccc(Cl)c3)c(Cl)cc2O1 [Compound 7, (S)-3-(7-chloro-6-(3-chlorophenyl)-4-((3-(trifluoromethyl)phenyl)sulfonyl)-3,4-dihydro-2H-benzo[b][1,4]oxazin-2-yl)propanoic acid]	** (The symbol “**” indicates a value in the range of greater than 90 to 150)	**** (The symbol “****” indicates a value greater than 200)	
> 6.30	> 6.30		O=C(O)C1CCN(C(=O)CC[C@H]2CN(S(=O)(=O)c3cccc(C(F)(F)F)c3)c3cc(-c4cccc(Cl)c4)cc(F)c3O2)CC1 [Compound 9, (S)-1-(3-(6-(3-chlorophenyl)-8-fluoro-4-((3-(trifluoromethyl)phenyl)sulfonyl)-3,4-dihydro-2H-benzo[b][1,4]oxazin-2-yl)propanoyl)piperidine-4-carboxylic acid]	** (The symbol “**” indicates a value in the range of greater than 90 to 150)	**** (The symbol “****” indicates a value greater than 200)	
> 6.30	> 6.30		CC(C)(O)CC[C@H]1CN(S(=O)(=O)c2cccc(C(F)(F)F)c2)c2cc(-c3cc(F)ccc3F)ccc2O1 [Compound 10, (S)-4-(6-(2,5-difluorophenyl)-4-((3-(trifluoromethyl)phenyl)sulfonyl)-3,4-dihydro-2H-benzo[b][1,4]oxazin-2-yl)-2-methylbutan-2-ol]	** (The symbol “**” indicates a value in the range of greater than 90 to 150)	**** (The symbol “****” indicates a value greater than 200)	
